Data from the NIST ThermoML archive (doi:10.1021/acs.jced.6b00718).

Tests used:
[1] = for viscosity / mass density: 101 kPa; for viscosity / mass density / electrical conductivity: Liquid; for viscosity: Falling or rolling sphere viscometry; for mass density: Vibrating tube method; for Normal melting temperature: DTA; for electrical conductivity: 101.33 kPa, Alternating current cell with electrodes
[2] = xn = mol fraction of the nth substance listed; conditions: 101 kPa, Liquid, x1 = 1; for viscosity: Falling or rolling sphere viscometry; for mass density: Vibrating tube method

N#CCCCC#N [pentanedinitrile]
[1]
Conditions | mass density [kg/m3] | viscosity [mPa·s]
293.15 K | 987 | 6.97
298.15 K | 983.1 | 6.12
303.15 K | 979.1 | 5.39
313.15 K | 971.2 | 4.25
323.15 K | 963.4 | 3.47
333.15 K | 955.6 | 2.88

CCCC[N+]1(C)CCCC1.O=S(=O)([N-]S(=O)(=O)C(F)(F)F)C(F)(F)F + N#CCCCC#N
[2]
Conditions | mass density [kg/m3] | viscosity [mPa·s]
293.15 K | 1399.8 | 98.72
298.15 K | 1395.2 | 77.66
303.15 K | 1390.7 | 62.29
313.15 K | 1381.7 | 41.87
323.15 K | 1372.8 | 29.61
333.15 K | 1363.8 | 21.82

N#CCCCCC#N [hexanedinitrile]
[1]
Conditions | Normal melting temperature [°C] | mass density [kg/m3] | viscosity [mPa·s]
293.15 K | – | 962.3 | 7.17
298.15 K | – | 958.6 | 6.31
303.15 K | – | 954.8 | 5.53
313.15 K | – | 947.2 | 4.54
323.15 K | – | 939.8 | 3.73
333.15 K | – | 932.3 | 3.02
Crystal | 6.2 | – | –

CCCC[N+]1(C)CCCC1.O=S(=O)([N-]S(=O)(=O)C(F)(F)F)C(F)(F)F
[1]
Conditions | Normal melting temperature [°C] | electrical conductivity [S/m] | mass density [kg/m3] | viscosity [mPa·s]
293.15 K | – | – | 1399.8 | 98.72
293.4 K | – | 0.22 | – | –
296.1 K | – | 0.249 | – | –
298.15 K | – | – | 1395.2 | 77.66
299.3 K | – | 0.285 | – | –
303.15 K | – | – | 1390.7 | 62.29
303.3 K | – | 0.334 | – | –
309.3 K | – | 0.419 | – | –
313.15 K | – | – | 1381.7 | 41.87
313.2 K | – | 0.481 | – | –
320 K | – | 0.6 | – | –
323.15 K | – | – | 1372.8 | 29.61
323.2 K | – | 0.66 | – | –
333.15 K | – | – | 1363.8 | 21.82
333.5 K | – | 0.88 | – | –
Metastable crystal | -20 | – | – | –

CCCC[N+]1(C)CCCC1.O=S(=O)([N-]S(=O)(=O)C(F)(F)F)C(F)(F)F + N#CCCCCC#N
[2]
Conditions | mass density [kg/m3] | viscosity [mPa·s]
293.15 K | 1399.8 | 98.72
298.15 K | 1395.2 | 77.66
303.15 K | 1390.7 | 62.29
313.15 K | 1381.7 | 41.87
323.15 K | 1372.8 | 29.61
333.15 K | 1363.8 | 21.82

CCCC[N+]1(C)CCCC1.O=S(=O)([N-]S(=O)(=O)C(F)(F)F)C(F)(F)F + CCCC#N
[2]
Conditions | mass density [kg/m3] | viscosity [mPa·s]
293.15 K | 1399.8 | 98.72
298.15 K | 1395.2 | 77.66
303.15 K | 1390.7 | 62.29
313.15 K | 1381.7 | 41.87
323.15 K | 1372.8 | 29.61
333.15 K | 1363.8 | 21.82

CCCC#N [butanenitrile]
[1]
Conditions | mass density [kg/m3] | viscosity [mPa·s]
293.15 K | 791.1 | 0.88
298.15 K | 786.4 | 0.86
303.15 K | 781.8 | 0.84
313.15 K | 772.4 | 0.81
323.15 K | 763 | 0.78
333.15 K | 753.5 | 0.75
